Test systems include CCRF-CEM leukemia; HOP-92 NSCLC; HOP-62 NSCLC; KM12 colon; SK-OV-3 ovarian; NCI-H460 lung; SF-539 CNS; SF-295 CNS; SK-MEL-2 melanoma; NCI-H23 lung.
What all share (test): NCI-60 cell line screen, 48 h

GI50 and TGI data for two compounds are collected here from PubChem BioAssay (NCI).

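Compound exposure: 48 hours, 5 concentrations, 96-well plates. Here, GI50 denotes the concentration required for 50% inhibition of growth. Definition used: TGI = concentration required for complete inhibition of growth.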

Take `CS(=O)(=O)Nc1cccc(-c2ccc3ncnc(Nc4ccc(F)c(Cl)c4)c3c2)c1`: the GI50 was 3.05 µM in the test with CCRF-CEM leukemia; 1.72 µM with HOP-92 NSCLC; 1.81 µM with HOP-62 NSCLC; 2.5 µM in the test on KM12 colon; 0.233 µM in the test on SK-OV-3 ovarian; 2.15 µM with NCI-H460 lung. For the same compound, the GI50 in the test on SF-539 CNS was 1.83 µM; with SF-295 CNS, 1.47 µM; with SK-MEL-2 melanoma, 1.98 µM; in the test on NCI-H23 lung it was 2.15 µM. The TGI in the test with CCRF-CEM leukemia is more than 100 µM; in the test with HOP-92 NSCLC, 5.25 µM; with HOP-62 NSCLC, 4.2 µM; with KM12 colon it was 8.3 µM; in the test on SK-OV-3 ovarian, 1.38 µM; in the test on NCI-H460 lung it was 5.6 µM. Further, the TGI was found to be 4.2 µM in the test on SF-539 CNS, 3.08 µM in the test with SF-295 CNS, 4.15 µM with SK-MEL-2 melanoma and 6.57 µM with NCI-H23 lung.
Take `N#CC(C(=O)CCCC(=O)Nc1ccc(Cl)cc1Cl)c1ccccc1` (stereo not given): the TGI in the test on CCRF-CEM leukemia, in the test on HOP-92 NSCLC, in the test with HOP-62 NSCLC, in the test on KM12 colon, in the test on SK-OV-3 ovarian and in the test with NCI-H460 lung was more than 100 µM throughout. The TGI in the test with SF-539 CNS, in the test on SF-295 CNS, with SK-MEL-2 melanoma and with NCI-H23 lung was more than 100 µM each time.
